Measurements from patent US8932853B2, “Method for manufacturing pancreatic-hormone-producing cells” (Takeda Pharmaceutical Company Limited, priority 2009, dated 2015).
“Also recorded” adds a separate entry of the source.

How the values were obtained:
[1] = system: progenitor cells of pancreatic hormone-producing cells induced from human iPS cells; test: immunofluorescent staining with anti-insulin antibody after step (4); type: cell-based; conditions: each added alone in step (4), day 10 to day 21; forskolin 10 μM, dibutyl cAMP 500 μM, IBMX 200 μM, ALK5 inhibitor II 5 μM, A-83-01 0.5 μM, SB431542 10 μM, TGFβRI kinase inhibitor VIII 2 μM, dexamethasone 10 μM, hydrocortisone 5 μM, betamethasone 2 μM, beclomethasone 1 μM
[2] = system: endodermal cells induced from human iPS cells; type: cell-based; conditions: added simultaneously with dorsomorphin (1 μM) and retinoic acid (2 μM) day 3 to day 10; SB431542 5 μM, ALK5 inhibitor II 2 μM, A-83-01 0.2 μM, TGFβRI kinase inhibitor VIII 0.2 μM; vs dorsomorphin and retinoic acid alone
Protocol: The dorsomorphin is an inhibitor of AMP-activated protein kinase (AMPK), and an inhibitor of ALK2, ALK3 and ALK6 from among activin receptor-like kinases (ALK). In addition, SB431542 is an inhibitor of ALK4, ALK5 and ALK7 from among ALKs.
As a control, the medium was changed to one added with dorsomorphin and retinoic acid alone (Ctrl). […] After the culture, the expression level of NGN3, which is progenitor cells of pancreatic hormone-producing cells marker, was measured in the same manner as in Example 1.

[3] = system: progenitor cells of pancreatic hormone-producing cells induced from human iPS cells; test: quantitative RT-PCR of insulin and PDX1 after step (4); type: cell-based; conditions: added in step (4) from day 10; forskolin 10 μM, nicotinamide 10 mM, dexamethasone 10 μM, ALK5 inhibitor II 5 μM; measured on day 12, 16 and 20; vs control without inducing factors
Protocol: The expression level of PDX1, which is pancreatic progenitor cells marker, and insulin, which is pancreatic β cells (insulin-producing cells) marker, was measured in the same manner as in Example 1.
The medium was changed once on day 7 of induction. […] The medium was changed every 3-4 days. After culture, the expression level of insulin was measured in the same manner as in Experimental Example 1.
The medium was changed once on day 7 of induction. […] The medium was changed every 5 days.
After culture under each condition, the expression levels of insulin in the cells on day 12 of differentiation induction, on day 16 of differentiation induction and day 20 of differentiation induction were measured in the same manner as in Example 1.

[4] = system: endodermal cells induced from human iPS cells; test: immunofluorescent staining with anti-PDX1 antibody after step (3); conditions: added simultaneously with retinoic acid (2 μM) for 7 days, day 3 to day 10; Noggin 100 ng/ml, dorsomorphin 1 μM
[5] = system: human iPS cells (253G1 strain); test: quantitative RT-PCR of BRACHYURY and SOX17 during induction of human iPS cells into endodermal cells, steps (1)-(2); type: cell-based; conditions: added with activin A (100 ng/ml) only the first day, CHIR99021 3 μM, Wnt3a 25 ng/ml, relative to GAPDH
Source text: As a first stage for induction of differentiation of human iPS cells (iPS cells obtained by introducing Oct3/4 gene, Klf4 gene and Sox2 gene: see Nat Biotechnol 2008; 26: 101-106) into pancreas cells (particularly pancreatic hormone-producing cells), differentiation of human iPS cells was induced into endodermal cells by using a 96 well plate.
As the human iPS cells, 253G1 strain (iPS cell line produced by expressing OCT4/SOX2/KLF4 with retrovirus; Nature Biotechnology 26, 101-106) was used. Maintenance culture of the iPS cells in an undifferentiated state was performed using mitomycin-treated mouse fibroblast (MEFs) seeded on a gelatin-coated plate as feeder cells, and a medium for primate ES cells (ReproCELL Incorporated) added with 4 ng/ml bFGF (PeproTech EC) and 0.5× Penicillin-streptomycin (SIGMA) as a medium at 37° C. under 5% CO2. The medium was changed every day, the cell mass was detached every 4-5 days using a cell detachment solution for primate ES cell (ReproCELL Incorporated), and passaged by seeding on new feeder cells.
As a preculture for differentiation induction into endodermal cells, undifferentiated iPS cells were seeded in a 96 well plate. First, iPS cells maintained in a cell mass was treated with 0.25% trypsin-1 mM EDTA solution (GIBCO) and dissociated until they became single cells. Then, iPS cells dispersed in a medium were seeded in a 96 well plate at a density of 2×10^4 cells per well and cultured at 37° C. under 5% CO2 for 1 day. The 96 well plate used had been gelatin-coated, seeded with 5×10^3 MEFs and cultured at 37° C. under 5% CO2 for 5 hr. In addition, as a culture medium for seeding, a medium for primate ES cells added with 10 μM Y-27632 (Wako Pure Chemical Industries, Ltd.) was used. One day after seeding, the medium was changed to a medium for primate ES cells without Y-27632, and the cells were further cultured for 2 days until they became confluent.
Differentiation of iPS cells into endodermal cells was induced according to the following method. First, the confluent cells were washed with RPMI medium (GIBCO), RPMI medium containing various differentiation-inducing factors and 2% fetal bovine serum (FBS) was added, and the mixture was cultured for 1 day. […]
To examine variation in the expression of endoderm differentiation marker when cultured under each condition, differentiation-induced cells were recovered over time, and the total RNA fractions were purified using RNeasy96 (Qiagen). Using a PrimeScript RT reagent kit (Takara Bio Inc.), cDNA was synthesized, and quantitative RT-PCR was performed, whereby the gene expression level of BRACHYURY, which is a primitive streak marker, and SOX17, which is an endodermal marker, was measured.

[6] = system: human iPS cells (253G1 strain); test: immunofluorescent staining with anti-SOX17 antibody on day 3 of differentiation induction; type: cell-based; conditions: added with activin A (100 ng/ml) for 1 day, then activin A alone 2 days, CHIR99021 3 μM, Wnt3a 25 ng/ml, SB415286 3 μM, SB216763 20 μM
Protocol: To examine expression of SOX17 protein after culture for 3 days, immunofluorescent staining using an anti-SOX17 antibody was performed. After culture up to day 3 in the same manner as in FIG. 1, the cells were fixed with 2% para-formaldehyde (PFA) for 10 min and further for 20 min with 4% PFA at room temperature.
Whether even use of a GSK3 inhibitor other than CHIR99021 in step (1) enables differentiation induction into endodermal cells was examined. The differentiation of human iPS cells into endodermal cells was induced according to the following method. […] Thereafter, the cells were washed with RPMI medium (GIBCO), and cultured for 1 day in RPMI medium containing various GSK3 inhibitors, activin A (100 ng/ml) and 2% fetal bovine serum (FBS). […] As a control, the cells were treated with a medium added only with activin A and free of GSK3 inhibitor. After culture for 1 day, the cells were washed with RPMI medium, and further cultured for 2 days in RPMI medium added with 2% FBS and 100 ng/ml activin A.
To examine expression of SOX17 protein on day 3 of differentiation induction, immunofluorescent staining using an anti-SOX17 antibody was performed. 4% PFA was added to the cells on day 3 of culture under each condition, the mixture was incubated at room temperature for 30 min to fix the cells.

**Q.** Which “positive rate of insulin-expressing cells” value [1] does the source give for Cc1cccc(-c2n[nH]cc2-c2ccc3ncccc3n2)n1 [ALK5 inhibitor II, 2-[3-[6-methylpyridin-2-yl]-1H-pyrazol-4-yl]-1,5-naphthyridine] here?
**A.** Its value is “remarkably increased; also recorded: induced differentiation into insulin-positive cells with high efficiency”.

**Q.** And the “expression level of NGN3” value [2]?
**A.** The value was “increased remarkably”.

**Q.** And the “expression level of insulin” value [3]?
**A.** Its value is “increased markedly; also recorded: high value”.

**Q.** For c1cc(-c2cnn3cc(-c4ccc(OCCN5CCCCC5)cc4)cnc23)ccn1 [dorsomorphin, 6-[4-(2-piperidin-1-ylethoxy)phenyl]-3-pyridin-4-ylpyrazolo[1,5-a]pyrimidine], which “differentiation into PDX1-positive cells” value [4] is on record?
**A.** The value was “remarkably induced; also recorded: many cells were induced into PDX1-positive cells”.

B1: Noggin: BMP antagonist (protein, UniProt Q13253 28-232, looked up)
Noggin: QHYLHIRPAPSDNLPLVDLIEHPDPIFDPKEKDLNETLLRSLLGGHYDPGFMATSPPEDRPGGGGGAAGGAEDLAELDQLLRQRPSGAMPSEIKGLEFSEGLAQGKKQRLSKKLRRKLQMWLWSQTFCPVLYAWNDLGSRFWPRYVKVGSCFSKRSCSVPEGMVCKPSKSVHLTVLRWRCQRRGGQRCGWIPIQYPIISECKCSC
**Q.** With B1 as the molecule, how does the “differentiation into PDX1-positive cells” value [4] read?
**A.** Its value is “remarkably induced; also recorded: many cells were induced into PDX1-positive cells”.

B2: Wnt3a: differentiation-inducing factor generally used for endoderm induction along with activin A (protein, UniProt P56704 19-352, looked up)
Protein Wnt-3a: SYPIWWSLAVGPQYSSLGSQPILCASIPGLVPKQLRFCRNYVEIMPSVAEGIKIGIQECQHQFRGRRWNCTTVHDSLAIFGPVLDKATRESAFVHAIASAGVAFAVTRSCAEGTAAICGCSSRHQGSPGKGWKWGGCSEDIEFGGMVSREFADARENRPDARSAMNRHNNEAGRQAIASHMHLKCKCHGLSGSCEVKTCWWSQPDFRAIGDFLKDKYDSASEMVVEKHRESRGWVETLRPRYTYFKVPTERDLVYYEASPNFCEPNPETGSFGTRDRTCNVSSHGIDGCDLLCCGRGHNARAERRREKCRCVFHWCCYVSCQECTRVYDVHTCK
**Q.** With B2 as the molecule, how does the “expression level of SOX17 (endodermal marker)” value ([5]; then activin A alone 2 days, days 2-3) read?
**A.** The value was “also lower than with a treatment with CHIR99021; also recorded: high value”.

**Q.** What about the “expression level of BRACHYURY (primitive streak marker)” value ([5]; day 1 of differentiation induction) of the same molecule?
**A.** Its value is “lower than with a treatment with CHIR99021”.

**Q.** What about the “ratio of cells expressing SOX17 protein” value [6] of the same molecule?
**A.** Its value is “a part of the cells also expressed SOX17 protein; also recorded: remarkably detected”.
